Laboratory results from patent US9578878B2, “Antimicrobial efficacy of an oregano oil and caprylic acid blend” (Kemin Industries, Inc., priority 2014, dated 2017).

What was measured:
[1] = system: C. albicans; experiment: Zone of inhibition assay; assay type: cell-based, Candida albicans; details: 20 μL per 6 mm disk, 72 hrs, n = 3
Procedure: For assays to find minimum inhibitory concentrations, all treatments were diluted in 10% DMSO and 0.5% Tween 80 to stabilize the samples.
Microorganisms Escherichia coli (ATCC #8739), Streptococcus sanguinis (ATCC #BAA-1455), Salmonella enteria subsp. enterica (ex Kauffmann and Edwards) Le Minor and Popoff serovar Typhimurium (ATCC #14028), Staphylococcus aureus (ATCC #6538), Pseudomonas aeruginosa (ATCC #9027), and Candida albicans (ATCC #10231) were obtained from a −80° C. internal stock culture. Aspergillus brasiliensis (ATCC #16404) was obtained from an internal stock solution culture stored at 4° C. E. coli, S. enterica S. aureus, and P. aeruginosa were grown in tryptic soy broth (TSB) and incubated at 37° C. for 24 h. S. sanguinis was grown in brain heart infusion broth (BHI). A. brasiliensis was plated on Sabourand dextrose agar (SDA) and incubated at 25° C. for 5-7 days. C. albicans was grown in Sabourand dextrose broth (SDB) and incubated at 25° C. for 48 h.
A. brasiliensis was harvested by adding 18 mL sterile saline to the plate and agitating the mold from the agar with a sterile inoculating loop. The inoculum was collected upon agitation. All suspended microbes were diluted with the same type of broth media used to grow each organism until an inoculum in the range of 10^6 CFU/mL was achieved. The inoculum concentration was determined by plate count method. Each strain was identified by plating on the appropriate growth media, E. coli, S. aureus, and P. aeruginosa on tryptic soy agar (Bacto, BD Sciences, Manassas, Va.) and C. albicans and A. brasiliensis on Sabrouand dextrose agar, to ensure there was no contamination of the inoculum.
A zone of inhibition assay was used for A. brasiliensis and C. albicans. SDA was used as the plated medium. Inocula at 10^5 cfu/ml were prepared and counted using a Petroff-Hausser counting chamber. The diameter of no growth around a 6 mm blank disk after incubation at 25° C. for 72 hrs was compared to the untreated control. 20 μL of treatment was applied to each disk in triplicate. 10% DMSO was used as the control.

[2] = system: Aspergillus brasiliensis (ATCC #16404); experiment: Preservative efficacy testing in cream, Example 2 (Study 1 and 2); assay type: cell-based
Procedure: (§1) Oregano essential oil containing 67.8% carvacrol (lot number 628034, thymol was not detectable) was received from Kemin SCI. Caprylic acid was obtained from Fisher Scientific (catalog number AC12939). To make MicroCurb OC, a blend with 10% oregano essential oil and 90% caprylic acid (w/w) was prepared for initial testing. The solution was mixed thoroughly for 10 seconds by a vortex mixer until a clear, homogenous mixture was obtained, resulting in the product MicroCurb OC.
(§2) Creams were prepared aseptically by spraying 70% isopropyl alcohol on all surfaces and glassware. Preservative studies were completed at different times for caprylic acid alone (Study 1) and MicroCurb OC (Study 2). Tables 5 and 6 list the various ingredients and their percentages used in Study 1 and 2, respectively.
(§3) De-ionized water was added to a pre-weighed 250 mL beaker and mixed at 800 rpm using an overhead mixer (Eurostar power-b IKA-WERKE, Wilmington, N.C.) with a 3 blade impeller. Carbomer 940 was slowly added to the center of the mixing water. The mixture was hydrated for 30 minutes while covered with aluminum foil. Glycerin and Lysofix were slowly added to the solution. After solution appeared homogenous, safflower oil, olive oil, and coco caprylate were slowly added to the mixture at 1000 rpm. The solution was mixed for 30 minutes while covered with aluminum foil. Next the pH was measured (around 3.2) and adjusted to 5.5 with a 33.3% sodium hydroxide solution. The mixing speed was increased to 1400 rpm. From time to time, it was necessary to scrape the sides of the beaker with a spatula to ensure that the cream became homogenized. After 5 minutes, the cream was weighed and water was replenished for the mass lost during the processing.
(§4) Microorganisms Escherichia coli (ATCC #8739), Staphylococcus aureus (ATCC #6538), Pseudomonas aeruginosa (ATCC #9027), and Candida albicans (ATCC #10231) were obtained from −80° C. internal stock cultures. Aspergillus brasiliensis (ATCC #16404) was obtained from an internal stock solution stored at 4° C. E. coli, S. aureus, and P. aeruginosa were grown in TSB and incubated at 37° C. for 24 h. A. brasiliensis was plated on SDA and incubated at 25° C. for 5-7 days. C. albicans was grown in SDB and incubated at 25° C. for 48 h.
(§5) Pathogens in broth were harvested by centrifugation (2400 rpm, 20 minutes) and suspended in sterile phosphate buffer. A. brasiliensis was harvested by adding 18 mL sterile phosphate buffer to the plate and agitating the mold from the agar with a sterile inoculating loop. The spores were collected upon agitation. All suspended microbes were diluted with sterile phosphate buffer until a concentration in the range of 10^8 CFU/mL was achieved. The concentration was determined by plate count method. Each strain was identified by plating on the appropriate growth media, E. coli, S. aureus, and P. aeruginosa on TSA and C. albicans and A. brasiliensis on SDA, to ensure there was no contamination of the inoculum.
(§6) Preservative Efficacy Testing. Each tube was inoculated with the standardized microbial suspensions, using a ratio of 1 mL to 10 grams of the product, ensuring that the inoculum after suspension would yield the target level of 6-log CFU/g cream. For every testing time point, the sample was enumerated by sampling 1 g from the original product containers, serial dilution, and streaking plates containing the appropriate growth media to test colonization in duplicate. The inoculated plates were incubated at 25° C. for C. albicans and A. niger and 37° C. for E. coli, S. aureus, and P. aeruginosa. The number of viable microorganisms per gram was calculated via plate count method. The samples were enumerated on day 0, 2, 3, 5, 7, 14, and 28.
(§7) The plate counts obtained each day were averaged for each treatment. The results were shown graphically by the log count of each averaged value per treatment per day. For plates that had no growth, the lowest dilution plated was recorded.

[3] = system: Candida albicans (ATCC #10231); experiment: as above; assay type: cell-based; details: Study 1, cream with 0.5% or 1.0% caprylic acid, after 2 days
Procedure: as §1, §2, §3, §4, §5, §6, §7

[4] = system: Escherichia coli (ATCC #8739); experiment: as above; assay type: cell-based; details: Study 1, cream with 0.5% or 1.0% caprylic acid, after 3 days
Procedure: as §1, §2, §3, §4, §5, §6, §7

[5] = system: Staphylococcus aureus (ATCC #6538); experiment: as above; assay type: cell-based; details: Study 1, cream with 0.5% or 1.0% caprylic acid, after 2 days
Procedure: as §1, §2, §3, §4, §5, §6, §7

CCCCCCCC(=O)O [Caprylic Acid, octanoic acid]
Inhibition Diameter, C. albicans ([1]; 0.45% treatment): 3.5 mm
Inhibition Diameter, C. albicans ([1]; 0.9% treatment): 4.5 mm
Inhibition Diameter, C. albicans ([1]; 2.7% treatment): 24.5 mm
Log reduction of A. brasiliensis ([2]; Study 1, cream with caprylic acid, by the end of the study (28 days)): 2 log
Ability to reduce the mold in cream ([2]; caprylic acid alone as control): unable to reduce the mold
Log reduction of C. albicans [3]: 5 log
Log reduction of E. coli [4]: 5 log
Log reduction of S. aureus [5]: 5 log
